Some results are limits rather than exact numbers.

As a reminder, the melting point is the temperature of the solid-liquid transition.

In the case of `C=CCN/C(=C1/Sc2ccccc2C1=O)c1ccccc1`, the melting point lay within 104 to 106 °C. Under `CCOc1ccc([N+](=O)[O-])cc1I` stands 81 to 83 °C. In the case of `CS(=O)(=O)NC[C@@H]1CN(c2ccc(N3CCC(O)(CN=[N+]=[N-])CC3)c(F)c2)C(=O)O1`, the melting point fell in the range of 142 to 144 °C.

In turn, `CCCN(CCC)S(=O)(=O)c1cccc(C(=O)Nc2ccc(Br)cc2C)c1` registered a melting point of 135 to 136 °C. To `COc1ccc(C2C(=O)NC(C)(C(C)C)C2=O)c(Cl)c1` (stereo not given) belongs 130 to 140 °C.

For `Nc1nc2cc(Cl)c(Cl)cc2nc1Br`, the melting point was in the range of 232 to 234 °C. To `CC(C)[C@H](NC(=O)CCC(=O)c1ccccc1)C(=O)O` belongs 118 to 120 °C; to `O=C(O)c1cccc(SCc2c(O[C@H](Cn3ccnc3)c3ccccc3)ccc3c2CCCC3=O)c1`, 225 °C.

As for `Cn1nnnc1-c1cnc2cc(Cl)c(F)cc2c1O`, the melting point was 326 to 330 °C.

In the case of `CCC(=O)NCc1ccc(CN2CCN(c3ccccc3)CC2)cc1`, the melting point lay within 140 to 141 °C. On to `CS(=O)(=O)c1ccc(-c2cccn2-c2ccc(OC(F)(F)F)cc2)cc1`, for which the melting point is 150 to 152 °C. To `Cc1nc(N)nc(N)c1CCCc1ccc(Cl)cc1Cl` belongs 181 to 185 °C; to `Cn1c(OCC(F)(F)F)nn(C(=O)Oc2ccccc2)c1=O`, 105 °C. The molecule `N#Cc1ccc(Nn2cnnc2)cc1-c1ccc(F)cc1` showed a melting point of 231 to 234 °C. Consider `CC(C)(C)c1cc(-c2nn(CCCC(=O)O)c3ncccc23)cc(C(C)(C)C)c1O`, for which the melting point lay in the range of 192 to 194 °C.

As to `N#CC(C#N)=C1c2ccsc2-c2c1cc([N+](=O)[O-])cc2[N+](=O)[O-]`, the melting point was in the range of 244 to 246 °C. Under `CC1CCC(NC(=O)NS(=O)(=O)c2ccc(CCNC(=O)N3CCCCC3=O)cc2)C1` (stereo not given) stands 166 to 168 °C; under `CC(C(=O)O)c1ccc(N=c2sccn2C)cc1` (stereo not given), 130 to 132 °C. Under `C=CCOC(=O)[C@@H]1CCC[C@@H]1C(N)=O` (relative stereo) stands 35 °C.

Turning to `Cc1cc(N)nc(CCc2nc3cc(-c4ccc(S(=O)(=O)N5CCCCC5)cc4)cnc3[nH]2)c1`, the melting point was 233 °C. To `COC(=O)NN=Cc1ccccc1N` belongs 149 to 150 °C; to `O=Cc1c[nH]c2c1ccc1c2[nH]c2cccc(Br)c21`, > 250 °C; to `Cc1cn2nc(Cl)cc(C)c2n1`, 109 to 110 °C.

Consider `COC(=O)c1ccc2ccc3ccccc3c(=O)c2c1`, for which the melting point lay within 118 to 120 °C. Under `O=C(NCCCc1ccncc1)N(CCC(F)(F)F)CCC12CC3CC(CC(C3)C1)C2` stands 108 to 109 °C; under `Cc1cc(C2=NN(C(N)=S)[C@H](C)Cc3cc4c(cc32)OCO4)ccc1[N+](=O)[O-]`, 123 to 125 °C; under `CCOC(=O)Cc1ccc2c(c1)sc1cc(N(C)C)ccc12`, 115 to 120 °C. For the molecule `CCCCC(=O)Nc1ccc(Cl)c(-n2nc(CCCC)c(Cc3ccc(-c4ccccc4S(=O)(=O)NC(=O)c4ccccc4Cl)cc3)c2C(=O)O)c1`, the melting point is > 110 °C. `CN1c2cc(Cl)ccc2-c2nc3ccc(Cl)cc3c3cccc1c23` showed a melting point of 273 to 275 °C. Regarding `O=C(Nc1ccc2c(c1)C=CC2)C(F)(F)F`, the melting point was 132 °C. Under `N#Cc1ccc(Cn2cncn2)cc1-c1ccc(O)cc1` stands 211 to 213 °C; under `O=C1N=c2ccc(NCCCc3ccccc3)cc2=N1`, 205 to 206 °C; under `CCn1c(=O)c2c(nc(/C=C/c3ccc(OC)c(OC)c3)n2C)n(CC)c1=O`, 190 to 191 °C. Under `COc1cc(Cc2cnc(N[N+](=O)[O-])[nH]c2=O)ccn1` stands 194 to 196 °C; under `CC(CN(C)C)Oc1ccccc1CC(=O)N1CC2C(C1)C(c1ccccc1)(c1ccccc1)CCS2=O` (racemic), 150 °C; under `CCOc1c(-c2ccc(S(C)(=O)=O)cc2)cnn(-c2ccc(F)c(F)c2)c1=O`, 121 to 123 °C. Under `COC(=O)c1cccc2[nH]c3ccccc3c12` stands 84.3 °C; under `CCOC(=O)Nc1ccn2cc(C)nc2c1Br`, 137 to 138 °C; under `FC(F)(F)c1[nH]c(-c2ccc(Cl)cc2)c(C(F)(F)F)c1Br`, 71 to 75 °C.

For the molecule `Clc1ccc(/C=C/C2=CCN(Cc3ccccc3)CC2)cc1`, the melting point fell in the range of 123 to 125 °C. `Brc1cccc2nc3[nH]c4ccccc4nc-3c12`: the melting point is > 300 °C.

`CC(=O)c1ccc(Oc2ccc(F)cc2)cc1` displayed a melting point of 65 to 67 °C. `CCOC(=O)CCCNC(=O)c1ccc2c(c1)C=CC(C)(C)O2` came in with a melting point of 88 to 89 °C. The molecule `CN1CCN=C(c2ccccc2)c2cc([N+](=O)[O-])ccc21` had a melting point of 186 to 187 °C. `Cc1cc(Oc2ccnc(OC(F)F)c2)nc(Oc2ccnc(OC(F)F)c2)c1` gave a melting point of 60 to 65 °C. In turn, `O=c1[nH]nccc1-c1ccccc1OC(F)(F)C(F)F` displayed a melting point of 178 °C. To `COc1ccc(C(NC(=O)CC2CCCC2)C2=CCc3ccccc32)c(C(=O)NS(=O)(=O)c2ccccc2C)c1` (stereo not given) belongs 227 to 228 °C; to `Nc1nc2ccc3cc(Br)c([N+](=O)[O-])cc3c2c(=O)[nH]1`, > 250 °C. Turning to `CCOC(=O)C1=C(C)NN=C(CC)C1c1ccc(Cl)cc1` (stereo not given), the melting point was 111 °C. On to `O=C1CNC(c2ccc(Cl)cc2)=NN1`, for which the melting point is > 260 °C. In turn, `Nc1c(F)c(N2CCCC(n3ccnn3)C2)c(F)c2c1c(=O)c(C(=O)O)cn2C1CC1` (stereo not given) came in with a melting point of 252 to 254 °C.

`COc1ccc(C(=O)Nc2ccc(Cl)cc2)cc1NC(=S)Nc1cc(Cl)cc(Cl)c1` came in with a melting point of 180 to 185 °C.

`Cc1ccccc1-c1cc(C(C)(C)C)c(O)c(C(C)(C)C)c1` gave a melting point of 85.5 to 87.5 °C. Under `CCCCN1C(=O)c2cncnc2N(C(=O)CN2CCN(C)CC2)c2ccccc21` stands 153 to 154 °C; under `N#CC(C#N)=CN(N=C(C#N)C#N)c1ccc(Cl)c(Cl)c1`, 162 to 164 °C; under `CNC(=O)COc1cc(-n2c(=O)cc(C(F)(F)F)n(C)c2=O)c(F)cc1Cl`, 190 to 192 °C. To `Cn1ncc(C(=O)N2CCC2)c1C(=O)Nc1ccc2nc(-c3cccnc3)nn2c1` belongs 272 °C; to `CC(C)(C)[Si](Oc1ccc(OCC2CO2)cc1)(c1ccccc1)c1ccccc1` (stereo not given), 97 to 98 °C; to `CCC(C)COc1ccc(-c2ccc(O)cc2)cc1C#N` (stereo not given), 181 °C. Molecule `Cc1c2n(c3ccccc13)C(=O)C(Cc1cncn1C)CC2` (stereo not given) returned a melting point of 117 to 118 °C. `CS(=O)(=O)c1cnc(Cl)c(Cl)c1`: the melting point fell in the range of 129 to 130 °C.

Molecule `CSc1ccc(/C=C2/C(C)=C(CC=NO)c3cc(F)ccc32)cc1` returned a melting point of 146 to 150 °C. Consider `CC(C)N(C(N)=O)c1ccc2c(c1)OCO2`, for which the melting point lay within 116 to 119 °C. Under `COc1ccc(OCc2ccccc2)c(C(=O)C=Cc2cccc([N+](=O)[O-])c2)c1` stands 108 to 110 °C.

In turn, `CCc1nc2c(o1)C(=O)C(C)=C(NCCN(C)C)C2=O` had a melting point of 135 °C. `COc1ccc(-c2nnc(Nc3ccc4cccnc4c3)cc2-c2ccc(C(F)(F)F)cc2)cc1` returned a melting point of 215 to 217 °C. `COc1cc(N)c2nccc(C)c2c1OCCCCc1ccccc1`: the melting point is 59 to 59.5 °C. To `O=C(O)c1cc([N+](=O)[O-])cs1` belongs 110 to 118 °C; to `COc1cc(Cc2cnc(N)nc2N)c2c(c1OC)OC(C1CC1)C=C2` (stereo not given), 229 °C. As to `O=C(COc1cccc2cccnc12)c1ccc(Cl)cc1`, the melting point was in the range of 111 to 112 °C. On to `C=C(C)C(=O)Oc1ccc(S(=O)(=O)Nc2ccccc2)cc1`, for which the melting point is 101 to 102 °C.

Molecule `CCCn1c(=O)c2c(nn3cc(-c4ccccc4)[nH]c23)n(Cc2ccccc2)c1=O` displayed a melting point of 261 to 262 °C. To `O=C(NC(=O)c1c(Cl)cccc1Cl)Nc1ccc(-c2ccccc2)cn1` belongs 221 to 231 °C; to `CC(C)Sc1sc(-c2nnn(C)n2)c2c1C(=O)CC(C)(C)C2`, 180 to 183 °C. In turn, `CC1(N)CCN(C2=Nc3c(nc(Cl)nc3Nc3ccc(F)c(Cl)c3)CN2)CC1` returned a melting point of 212 °C. In the case of `COC(=O)CCCc1cc2nc(Cl)ccc2n1S(=O)(=O)c1ccc(C(C)C)cc1`, the melting point was 75 °C. To `CCOC(=O)[C@@H](Cc1ccccc1)C[C@H](Cc1ccccc1)C(=O)NCCC(=O)O` (relative stereo) belongs 84 to 86 °C; to `CC1COc2c(N3CCSCC3)c(F)cc3c(=O)c(C(=O)O)cn1c23` (stereo not given), > 300 °C; to `O=C(O)C(CC1CCCC1)c1cccc([N+](=O)[O-])c1` (stereo not given), 95 to 99 °C. To `COC(=O)c1cc2cc(COc3cccnc3)ccc2s1` belongs 106 to 107 °C; to `Cc1c(NC(=O)CC(C)(C)C)c(C)c2c(c1-c1cccc(F)c1)OCC2c1ccc(C(C)C)cc1` (stereo not given), 182 to 183 °C.

Consider `COCn1ncc2cc(-c3nnc(S)o3)ccc21`, for which the melting point is > 300 °C. To `COc1cccc(CN(Cc2cccc(OC)c2)c2ccc(-c3ccccc3)cc2)c1` belongs 98 to 98.5 °C; to `Cc1ncoc1C(C)(O)c1cccs1` (stereo not given), 84 to 85 °C; to `CCCCCCC(C)(C)c1ccc(C2=CC(=O)CCC2)c(O)c1`, 122 to 123 °C. Under `COC(=O)c1cscc1Nc1ccc(F)cc1[N+](=O)[O-]` stands 164 °C; under `CC1(C)OC(CCN)CC(CC(=O)O)O1` (stereo not given), 165 °C; under `CCc1nc2c(N)nc3ccccc3c2n1CC1(O)CCCC1`, 210 °C.

Molecule `O=[N+]([O-])c1ccccc1-c1ccc2c(c1)S(=O)(=O)NC(C1CCCCC1)N2` (stereo not given) gave a melting point of 204 to 207 °C. Turning to `CC1(C)CCC(C)(C)c2cc(-c3cc(-c4ccc(C(=O)O)cc4)ccc3-c3ccccc3)ccc21`, the melting point was in the range of 287 to 288 °C.

Source of the values: a melting point compilation (Tetko et al.; mined from patent text by program, amines drawn as free bases though some values may be those of a salt).
